Consider four compounds from ChEMBL document CHEMBL4616727, “Characterization of Conformationally Constrained Benzanilide Scaffolds for Potent and Selective HDAC8 Targeting” (J Med Chem, 2020).

Series [1] can be described thus: MRT in CD1 mouse at 100 mg/kg, ip measured after 5 mins to 12 hrs by LC-MS/MS analysis. The series is classed as ADME, organism-based. As to conditions: in vivo.
Series [2] in a line: AUClast in CD1 mouse at 100 mg/kg, ip measured after 5 mins to 12 hrs by LC-MS/MS analysis. As to conditions: in vivo. The series is classed as ADME, organism-based. Also on record: time upper 12 hr, time lower 0.083 hr, dose 100 mg/kg, route intraperitoneal.
Series [3] is described as follows: Cmax in CD1 mouse at 100 mg/kg, ip measured after 5 mins to 12 hrs by LC-MS/MS analysis. The settings on record: in vivo. Also on record: dose 100 mg/kg, route intraperitoneal. The series is classed as ADME, organism-based.
Series [4] in a line: Half life in CD1 mouse at 100 mg/kg, ip measured after 5 mins to 12 hrs by LC-MS/MS analysis. The series is classed as ADME, organism-based. As to conditions: in vivo.
Series [5] is described as follows: Effective permeability at pH 7.4 by PAMPA method. The series is classed as ADME. Background: The PAMPA barrier holds no transporters, so it reflects passive diffusion.
Series [6] relates to BE(2)-C. Briefly: Inhibition of colony formation in human BE(2)-C cells.
Series [7] is described as follows: Effective permeability assessed as drug recovery at pH 7.4 by PAMPA method. The series is classed as ADME. The settings on record: read-out: Drug recovery.
For series [8], the target named is Histone deacetylase 5 (Homo sapiens, UniProt Q9UQL6). Nature of the series: Inhibition of N-terminal GST-tagged full length human HDAC5 expressed in baculovirus expression system using FAM-RHKK(TF-Ac)-NH2 substrate incubated for 2 hrs by EMSA method.
Histone deacetylase 5, sequence (Q9UQL6 whole entry): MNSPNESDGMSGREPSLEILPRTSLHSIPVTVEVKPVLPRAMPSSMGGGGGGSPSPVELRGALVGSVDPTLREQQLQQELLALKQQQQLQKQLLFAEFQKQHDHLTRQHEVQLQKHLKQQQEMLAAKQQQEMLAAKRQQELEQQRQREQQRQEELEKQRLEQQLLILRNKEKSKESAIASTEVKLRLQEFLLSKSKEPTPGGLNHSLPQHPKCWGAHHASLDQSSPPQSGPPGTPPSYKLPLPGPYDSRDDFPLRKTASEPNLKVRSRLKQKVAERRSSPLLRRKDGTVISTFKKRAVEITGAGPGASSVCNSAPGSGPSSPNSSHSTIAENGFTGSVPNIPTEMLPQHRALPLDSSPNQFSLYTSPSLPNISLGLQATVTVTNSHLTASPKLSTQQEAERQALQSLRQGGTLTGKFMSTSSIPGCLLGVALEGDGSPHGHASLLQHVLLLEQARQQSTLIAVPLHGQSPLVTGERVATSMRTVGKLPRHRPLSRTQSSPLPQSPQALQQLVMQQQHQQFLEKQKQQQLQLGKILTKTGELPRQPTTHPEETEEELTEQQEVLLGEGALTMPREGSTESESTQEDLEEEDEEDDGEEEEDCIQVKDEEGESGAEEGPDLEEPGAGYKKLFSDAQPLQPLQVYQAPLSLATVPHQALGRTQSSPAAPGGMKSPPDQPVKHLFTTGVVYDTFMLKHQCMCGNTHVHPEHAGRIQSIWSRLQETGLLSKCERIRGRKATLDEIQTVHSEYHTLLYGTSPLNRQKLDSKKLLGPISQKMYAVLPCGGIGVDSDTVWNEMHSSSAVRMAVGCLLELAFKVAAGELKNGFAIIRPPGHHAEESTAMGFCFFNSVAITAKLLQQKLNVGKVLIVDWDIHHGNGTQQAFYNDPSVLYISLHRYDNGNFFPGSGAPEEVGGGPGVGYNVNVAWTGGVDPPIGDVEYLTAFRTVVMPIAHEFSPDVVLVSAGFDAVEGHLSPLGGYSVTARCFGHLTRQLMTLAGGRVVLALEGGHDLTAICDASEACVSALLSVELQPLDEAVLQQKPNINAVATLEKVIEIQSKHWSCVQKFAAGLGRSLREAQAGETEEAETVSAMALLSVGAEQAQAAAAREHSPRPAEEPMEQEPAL
Series [9] addresses T1, Polyamine deacetylase HDAC10 (Homo sapiens, UniProt Q969S8).
T1 sequence (Q969S8 whole entry): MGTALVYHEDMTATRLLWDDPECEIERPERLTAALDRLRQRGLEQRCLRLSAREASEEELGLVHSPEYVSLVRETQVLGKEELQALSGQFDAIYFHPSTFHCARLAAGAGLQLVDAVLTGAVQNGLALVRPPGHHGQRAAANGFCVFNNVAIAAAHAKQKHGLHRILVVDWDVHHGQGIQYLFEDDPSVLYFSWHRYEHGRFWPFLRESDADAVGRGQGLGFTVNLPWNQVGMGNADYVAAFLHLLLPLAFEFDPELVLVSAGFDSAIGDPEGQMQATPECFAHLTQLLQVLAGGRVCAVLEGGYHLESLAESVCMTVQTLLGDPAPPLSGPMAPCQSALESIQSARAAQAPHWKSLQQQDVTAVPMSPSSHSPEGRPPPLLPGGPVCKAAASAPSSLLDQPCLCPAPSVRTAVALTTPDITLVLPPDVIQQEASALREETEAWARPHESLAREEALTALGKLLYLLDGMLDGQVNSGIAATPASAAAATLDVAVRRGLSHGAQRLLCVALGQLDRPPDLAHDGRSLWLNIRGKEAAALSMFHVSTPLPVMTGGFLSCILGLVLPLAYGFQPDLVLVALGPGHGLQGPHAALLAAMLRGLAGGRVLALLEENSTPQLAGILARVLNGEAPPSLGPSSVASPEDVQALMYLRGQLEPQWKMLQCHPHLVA
Briefly: Inhibition of N-terminal His-tagged full length human HDAC10 expressed in baculovirus expression system using FAM-TSRHK(Ac)KL-NH2 substrate incubated for 17 hrs by EMSA method.

For series [10], the target named is T2, Histone deacetylase 7 (Homo sapiens, UniProt Q8WUI4).
T2 sequence (Q8WUI4 whole entry): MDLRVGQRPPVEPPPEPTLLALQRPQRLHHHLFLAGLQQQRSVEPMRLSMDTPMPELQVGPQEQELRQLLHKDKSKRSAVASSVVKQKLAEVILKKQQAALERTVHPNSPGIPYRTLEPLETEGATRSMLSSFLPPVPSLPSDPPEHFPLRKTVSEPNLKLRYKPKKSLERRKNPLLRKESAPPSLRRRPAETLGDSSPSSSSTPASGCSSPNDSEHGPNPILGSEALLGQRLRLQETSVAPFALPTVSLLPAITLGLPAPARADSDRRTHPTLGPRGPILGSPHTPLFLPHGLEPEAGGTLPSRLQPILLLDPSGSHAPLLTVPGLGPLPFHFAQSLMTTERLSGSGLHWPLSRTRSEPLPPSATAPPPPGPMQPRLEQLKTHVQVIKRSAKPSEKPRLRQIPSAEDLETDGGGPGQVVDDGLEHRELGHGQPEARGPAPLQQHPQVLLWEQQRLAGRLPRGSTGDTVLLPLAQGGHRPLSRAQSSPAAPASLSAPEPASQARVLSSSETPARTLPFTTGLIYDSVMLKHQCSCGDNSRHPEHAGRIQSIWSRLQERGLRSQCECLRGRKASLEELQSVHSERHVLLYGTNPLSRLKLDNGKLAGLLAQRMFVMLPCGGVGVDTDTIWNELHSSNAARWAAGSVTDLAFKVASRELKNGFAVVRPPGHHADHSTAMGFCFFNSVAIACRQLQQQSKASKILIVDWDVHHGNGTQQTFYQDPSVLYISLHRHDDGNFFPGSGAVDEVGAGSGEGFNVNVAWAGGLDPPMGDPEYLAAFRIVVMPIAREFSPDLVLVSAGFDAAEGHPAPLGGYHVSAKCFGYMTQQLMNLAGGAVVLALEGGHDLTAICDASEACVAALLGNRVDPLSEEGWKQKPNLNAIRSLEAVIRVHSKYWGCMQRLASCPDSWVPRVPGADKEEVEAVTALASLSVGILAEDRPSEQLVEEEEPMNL
Briefly: Inhibition of N-terminal GST-tagged human HDAC7 (518 to end residues) expressed in baculovirus expression system using FAM-RHKK(TF-Ac)-NH2 substrate incubated for 3 hrs by EMSA method.

Series [11] deals with Histone deacetylase 4 (Homo sapiens, UniProt P56524). Nature of the series: Inhibition of C-terminal GST-tagged human HDAC4 (101 to 1084 resides) expressed in baculovirus expression system using FAM-RHKK(TF-Ac)-NH2 substrate incubated for […] by EMSA method.
Histone deacetylase 4, sequence (P56524 whole entry): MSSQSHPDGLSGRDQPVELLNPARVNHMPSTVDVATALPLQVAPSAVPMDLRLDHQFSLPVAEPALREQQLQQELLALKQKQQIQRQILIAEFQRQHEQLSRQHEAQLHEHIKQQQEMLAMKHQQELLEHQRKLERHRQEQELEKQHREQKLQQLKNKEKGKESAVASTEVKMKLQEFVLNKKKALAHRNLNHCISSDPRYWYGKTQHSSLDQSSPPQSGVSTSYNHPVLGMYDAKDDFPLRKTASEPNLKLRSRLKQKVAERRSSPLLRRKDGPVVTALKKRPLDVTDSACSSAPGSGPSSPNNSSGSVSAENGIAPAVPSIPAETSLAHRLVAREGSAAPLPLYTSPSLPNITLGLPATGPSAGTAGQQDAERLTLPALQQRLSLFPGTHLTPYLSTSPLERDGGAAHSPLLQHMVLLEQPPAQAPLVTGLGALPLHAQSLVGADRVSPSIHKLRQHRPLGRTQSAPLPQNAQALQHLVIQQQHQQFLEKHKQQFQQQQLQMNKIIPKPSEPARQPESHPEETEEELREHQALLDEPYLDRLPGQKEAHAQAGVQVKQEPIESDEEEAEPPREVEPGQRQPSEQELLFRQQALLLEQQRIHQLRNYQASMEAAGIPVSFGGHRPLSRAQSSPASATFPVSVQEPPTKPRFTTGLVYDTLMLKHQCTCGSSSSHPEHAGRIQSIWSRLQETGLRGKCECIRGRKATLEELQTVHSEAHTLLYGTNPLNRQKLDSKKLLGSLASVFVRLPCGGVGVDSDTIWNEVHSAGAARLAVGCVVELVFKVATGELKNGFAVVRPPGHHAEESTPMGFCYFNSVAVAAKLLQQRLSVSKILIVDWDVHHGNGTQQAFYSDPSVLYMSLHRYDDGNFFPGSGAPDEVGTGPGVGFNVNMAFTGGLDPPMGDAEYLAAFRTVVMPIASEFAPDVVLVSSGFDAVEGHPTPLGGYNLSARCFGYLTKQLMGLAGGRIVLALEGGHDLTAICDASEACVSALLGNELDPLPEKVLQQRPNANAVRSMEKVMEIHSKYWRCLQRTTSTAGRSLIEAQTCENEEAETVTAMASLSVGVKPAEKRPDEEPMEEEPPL
The target of series [12] is Histone deacetylase 9 (Homo sapiens, UniProt Q9UKV0). Nature of the series: Inhibition of C-terminal His-tagged human HDAC9 (604 to 1066residues) expressed in baculovirus expression system using […] substrate incubated for 3 hrs by EMSA method.
Histone deacetylase 9, sequence (Q9UKV0 whole entry): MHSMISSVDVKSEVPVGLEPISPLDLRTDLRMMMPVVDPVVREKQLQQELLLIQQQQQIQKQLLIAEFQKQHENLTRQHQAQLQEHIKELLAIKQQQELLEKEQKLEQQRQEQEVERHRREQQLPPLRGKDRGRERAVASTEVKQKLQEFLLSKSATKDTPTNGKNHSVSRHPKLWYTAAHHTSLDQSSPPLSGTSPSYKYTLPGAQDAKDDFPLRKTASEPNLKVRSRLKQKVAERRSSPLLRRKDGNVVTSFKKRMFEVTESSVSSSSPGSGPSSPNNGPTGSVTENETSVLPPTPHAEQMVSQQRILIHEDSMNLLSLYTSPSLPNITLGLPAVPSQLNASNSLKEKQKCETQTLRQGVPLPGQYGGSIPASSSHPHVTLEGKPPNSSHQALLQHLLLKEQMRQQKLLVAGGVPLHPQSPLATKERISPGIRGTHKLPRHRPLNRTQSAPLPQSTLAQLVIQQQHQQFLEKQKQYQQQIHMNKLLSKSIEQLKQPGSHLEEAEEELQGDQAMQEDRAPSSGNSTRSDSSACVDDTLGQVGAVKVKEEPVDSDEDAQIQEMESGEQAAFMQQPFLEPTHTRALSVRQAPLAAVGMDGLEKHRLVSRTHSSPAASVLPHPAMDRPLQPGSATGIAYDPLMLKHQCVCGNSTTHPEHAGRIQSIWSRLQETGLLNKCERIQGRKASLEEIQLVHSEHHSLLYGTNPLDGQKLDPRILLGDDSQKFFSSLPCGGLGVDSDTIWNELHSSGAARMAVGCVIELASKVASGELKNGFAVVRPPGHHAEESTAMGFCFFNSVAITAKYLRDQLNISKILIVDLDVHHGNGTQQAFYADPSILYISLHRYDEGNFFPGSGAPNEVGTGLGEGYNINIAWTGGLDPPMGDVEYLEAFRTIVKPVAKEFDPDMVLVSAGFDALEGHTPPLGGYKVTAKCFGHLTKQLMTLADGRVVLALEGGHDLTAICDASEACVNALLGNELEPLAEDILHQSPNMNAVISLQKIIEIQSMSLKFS

Each structure is given as a SMILES string. Bounds are passed on as bounds.

Turning to `COc1ccc(Cn2ccc3ccc(C(=O)NO)cc32)cc1`, in series [1], the MRT (in general, a mean duration of stay, worked out from the concentration-time curve) came out at 0.45 h. Besides, in series [2], the AUC(0-t) (commonly exposure summed from dosing to a finite time, without extrapolation to infinity) was 6950 ng·h/mL. Also, the Cmax (commonly the highest concentration seen after dosing) in series [3] was determined as 57.6 µM. Further, in series [4], the half-life (commonly how long it takes for the measured level to halve) is 3.3 h.
In the case of `CC(C)(C)c1cccc(C(=O)N(CC2CC2)c2ccc(C(=O)NO)cc2)c1`, in [1], the mean residence time MRT is 2.77 h. For the same compound, the “log(permeability)” value in series [5] is -5.7. Besides, the IC50 (usually the concentration at which inhibition is half-maximal) in [6] is 2.1 µM. Further, in series [7], the recovery amounted to 102%.
Regarding `CC(C)N(C(=O)c1cc(C(F)(F)F)cc(C(F)(F)F)c1)c1ccc(C(=O)NO)cc1`, the IC50 in series [8], in series [9], in [10], in series [11] and in series [12] was over 10 µM in each case. The “log(permeability)” value in series [5] is recorded as -5.42. Moreover, the recovery in series [7] turned out to be 95.4%.
On to `CC(C)N(C(=O)c1cccc(OC(F)(F)F)c1)c1ccc(C(=O)NO)cc1`, for which the MRT in [1] worked out at 3 h. Moreover, in series [5], the “log(permeability)” value is -5.8. For the same compound, in series [7], the recovery is 102%.
